Calls of active or inactive are those of the source.
How the values were obtained:
[1] = target: T1, RNA-binding protein pos-1 (Caenorhabditis elegans, UniProt G5EF15); test: disruptors of C. elegans POS-1 RNA interaction – biochemical, fluorescence polarization, dose response (AID 1964);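 also: purified POS-1 fused to maltose binding protein made in E. coli; potency of compounds blocking POS-1 binding to fluorescent RNA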
T1 sequence (G5EF15 whole entry): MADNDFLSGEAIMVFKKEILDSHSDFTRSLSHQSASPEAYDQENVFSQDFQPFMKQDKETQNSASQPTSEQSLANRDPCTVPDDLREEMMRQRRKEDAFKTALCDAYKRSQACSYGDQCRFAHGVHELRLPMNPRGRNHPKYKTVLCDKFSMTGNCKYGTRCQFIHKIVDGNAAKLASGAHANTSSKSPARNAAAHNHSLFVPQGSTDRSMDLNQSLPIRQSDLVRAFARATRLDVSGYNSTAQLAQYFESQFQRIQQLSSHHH

[2] = target: T2, Zinc finger protein mex-5 (Caenorhabditis elegans, UniProt Q9XUB2); test: potency of MEX-5 RNA-binding blockers – biochemical, C. elegans, fluorescence polarization, dose response (AID 1960)
T2 sequence (Q9XUB2 whole entry): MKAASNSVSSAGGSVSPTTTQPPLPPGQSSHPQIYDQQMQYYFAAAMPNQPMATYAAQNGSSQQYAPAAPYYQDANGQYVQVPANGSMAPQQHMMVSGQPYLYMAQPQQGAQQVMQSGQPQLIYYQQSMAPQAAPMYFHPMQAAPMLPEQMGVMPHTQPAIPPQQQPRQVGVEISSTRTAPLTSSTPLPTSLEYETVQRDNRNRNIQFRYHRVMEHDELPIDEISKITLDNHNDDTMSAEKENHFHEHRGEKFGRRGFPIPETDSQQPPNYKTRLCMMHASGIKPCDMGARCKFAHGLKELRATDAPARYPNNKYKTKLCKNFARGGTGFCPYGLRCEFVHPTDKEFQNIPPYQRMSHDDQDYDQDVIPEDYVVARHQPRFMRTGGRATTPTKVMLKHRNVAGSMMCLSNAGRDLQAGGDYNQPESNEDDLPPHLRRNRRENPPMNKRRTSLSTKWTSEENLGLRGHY

[3] = target: FAD-linked sulfhydryl oxidase ALR (Homo sapiens, UniProt P55789); test: ALR-catalysed DTT oxidation blockers – biochemical, H2O2 detection, luminescence, cherry-pick, dose response (AID 493248)
Sequence of FAD-linked sulfhydryl oxidase ALR (P55789 whole entry): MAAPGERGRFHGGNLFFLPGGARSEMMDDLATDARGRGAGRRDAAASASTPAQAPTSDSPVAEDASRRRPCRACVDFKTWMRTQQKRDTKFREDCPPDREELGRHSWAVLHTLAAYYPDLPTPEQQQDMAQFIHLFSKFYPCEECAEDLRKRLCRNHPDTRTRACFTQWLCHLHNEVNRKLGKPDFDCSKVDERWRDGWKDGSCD

[4] = target: T3, Protein skinhead-1 (Caenorhabditis elegans, UniProt P34707); format: functional
T3 sequence (P34707 whole entry): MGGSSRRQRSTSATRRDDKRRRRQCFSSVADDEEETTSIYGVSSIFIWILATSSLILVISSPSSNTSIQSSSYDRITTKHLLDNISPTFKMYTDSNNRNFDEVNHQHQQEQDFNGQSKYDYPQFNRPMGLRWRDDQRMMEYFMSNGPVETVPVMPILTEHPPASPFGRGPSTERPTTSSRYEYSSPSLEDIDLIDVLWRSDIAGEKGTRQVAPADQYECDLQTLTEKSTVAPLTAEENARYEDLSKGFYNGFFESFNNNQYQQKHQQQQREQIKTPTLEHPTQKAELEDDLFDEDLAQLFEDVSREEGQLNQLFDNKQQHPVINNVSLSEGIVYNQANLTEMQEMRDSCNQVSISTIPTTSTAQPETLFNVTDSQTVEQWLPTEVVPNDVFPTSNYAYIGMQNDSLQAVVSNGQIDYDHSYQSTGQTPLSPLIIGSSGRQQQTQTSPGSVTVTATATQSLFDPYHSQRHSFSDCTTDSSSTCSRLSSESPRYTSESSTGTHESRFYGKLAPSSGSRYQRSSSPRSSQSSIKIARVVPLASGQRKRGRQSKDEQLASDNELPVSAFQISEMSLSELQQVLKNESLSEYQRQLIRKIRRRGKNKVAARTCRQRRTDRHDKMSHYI

[5] = tested on: INS1; test: INS-1E survival protection against cytokine death – cell-based, luminescence, retest, dose response (AID 449756); format: functional; details: Rattus norvegicus;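 also: cell death triggered by IL-1 beta plus TNF-alpha plus IFN-gamma mixture; protective hits raise ATP signal compared with cytokine alone wells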
[6] = Luminescence Cell-Based Dose Response HTS to Identify Activators of Luciferase Translation or Activity in H4 […] Cells. [Related pubchem assays: 1829 (Project Summary), 1814 (Primary HTS)]; format: functional
[7] = tested on: H4; test: Luminescence Cell-Based Dose Response HTS to Identify Activators of 5'UTR Stem-Loop Driven Prion Protein mRNA Translation in H4 Neuroglioblastoma Cells. [Related pubchem assays: 1829 (Project Summary), 1814 (Primary HTS)]; format: functional; details: Homo sapiens
[8] = NIH3T3 cell viability loss – ATP luminescence, mouse fibroblasts, counter-screen, dose response (AID 2010); format: functional, cell-based;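 also: cells exposed to compound for about 90 hours before reading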
[9] = Trypanosoma cruzi growth suppression in host cells – NIH3T3 host cells, beta-gal luminescence, confirmation (AID 2044); format: functional, cell-based;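 also: intracellular parasites grown in NIH/3T3 mouse fibroblasts as host cells; luminescent beta-galactosidase reporter signal from transgenic T. cruzi replicating inside host cells; inhibitors lower the luminescence signal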
[10] = target: Paired box protein Pax-8 (Homo sapiens, UniProt Q06710); test: PAX8 transcriptional activity inhibition in RMG-I – RMG-I cells, luciferase, cherry-pick, dose response (AID 687027); format: functional, cell-based;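 also: luciferase reporter driven by Pax8 target thyroperoxidase promoter measured by SteadyGlo luminescence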
Sequence of Paired box protein Pax-8 (Q06710 whole entry): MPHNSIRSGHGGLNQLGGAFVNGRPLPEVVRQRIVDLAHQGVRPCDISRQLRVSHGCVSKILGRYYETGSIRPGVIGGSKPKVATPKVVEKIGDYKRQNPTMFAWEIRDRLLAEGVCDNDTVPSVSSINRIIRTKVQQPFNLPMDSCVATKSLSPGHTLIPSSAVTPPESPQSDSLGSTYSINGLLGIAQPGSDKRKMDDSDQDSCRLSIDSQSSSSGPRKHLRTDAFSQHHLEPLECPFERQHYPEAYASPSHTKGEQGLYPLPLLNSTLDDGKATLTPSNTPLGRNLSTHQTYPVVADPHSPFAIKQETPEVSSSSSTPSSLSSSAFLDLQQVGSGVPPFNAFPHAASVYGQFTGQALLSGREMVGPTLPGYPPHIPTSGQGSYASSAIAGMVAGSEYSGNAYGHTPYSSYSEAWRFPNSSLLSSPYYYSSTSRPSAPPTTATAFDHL

[11] = target: T4, Rac GTPase-activating protein 1 (Homo sapiens, UniProt Q9H0H5); test: blockers of MgcRacGAP-driven Rac1 GTP hydrolysis – biochemical, ADP Hunter fluorescence, primary and confirmatory, confirmation (AID 624330); format: functional
T4 sequence (Q9H0H5 whole entry): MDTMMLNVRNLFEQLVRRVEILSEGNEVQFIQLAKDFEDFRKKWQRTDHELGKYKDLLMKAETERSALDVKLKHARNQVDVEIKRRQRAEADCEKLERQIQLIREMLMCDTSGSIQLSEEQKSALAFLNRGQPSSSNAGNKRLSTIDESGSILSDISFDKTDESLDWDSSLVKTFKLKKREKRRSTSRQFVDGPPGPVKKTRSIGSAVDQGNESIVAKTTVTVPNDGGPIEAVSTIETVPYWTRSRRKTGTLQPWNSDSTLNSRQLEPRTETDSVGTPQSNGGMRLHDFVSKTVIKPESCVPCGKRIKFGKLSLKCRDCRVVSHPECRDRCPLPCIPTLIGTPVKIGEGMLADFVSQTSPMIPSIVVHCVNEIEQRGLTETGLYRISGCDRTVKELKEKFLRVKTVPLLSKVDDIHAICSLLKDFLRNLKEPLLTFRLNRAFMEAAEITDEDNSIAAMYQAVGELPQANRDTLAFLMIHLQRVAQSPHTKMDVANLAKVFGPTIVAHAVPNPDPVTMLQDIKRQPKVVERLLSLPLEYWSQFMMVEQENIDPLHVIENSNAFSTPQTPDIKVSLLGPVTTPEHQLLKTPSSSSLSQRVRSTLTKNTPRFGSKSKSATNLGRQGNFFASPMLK

Compound: ClCc1nc2ccccc2n1Cc1ccccc1
- EC50 [1]: 2.24 µM (inconclusive)
- EC50 [2]: 3.93 µM (inconclusive)

Compound: COc1ccc2c(-c3ccccc3)cc(SCC(N)=O)nc2c1
- EC50 [1]: > 300 µM (not active)
- EC50 [2]: > 300 µM (not active)

Compound: COc1cc(/C=C/c2cc(C(=O)O)c3ccccc3n2)cc(OC)c1O
- AC50 [3]: 0.141 µM (active)

Compound: Cc1ccc(S(=O)(=O)N2CC=C(c3c(C)n(C)c4ccccc34)CC2)cc1
- IC50 [4]: > 100 µM (inactive)

Compound: CCC(=O)Nc1cc(C)c(NC(=O)CCc2ccccc2)cn1
- EC50 [1]: 24 µM (active)
- EC50 [2]: 26 µM (inconclusive)

Compound: CC(C)(C)OC(=O)NCCCC1=CC2=CC(=O)C(C)(OC(=O)C3CCCC3)C(=O)C2=CO1 (stereo unspecified)
- EC50 [1]: 18.8 µM (active)
- EC50 [2]: 18.7 µM (active)

Compound: CCOC(=O)N1CCN(S(=O)(=O)c2ccc(C(=O)NNc3nc4ccc(Cl)cc4s3)cc2)CC1
- AC50 [5]: 3.39 µM (active)

Compound: CN1C(=O)N(c2ccccc2)C(Nc2nncs2)C1(C)C (stereo unspecified)
- IC50 [4]: > 100 µM (inactive)

Compound: Cc1cc(C)c(OCCOCCN2CCNCC2)c(C)c1
- IC50 [4]: > 100 µM (inactive)

Compound: O=C(Nc1nc(-c2ccccc2)ns1)c1cccs1
- AC50 [3]: 81 µM (active)
- EC50 [6]: 1.32 µM (active)
- EC50 [7]: > 120 µM (not active)

Compound: O=C(Cn1cc(C=C2C(=O)NC(=O)NC2=O)c2ccccc21)NCC1CCCO1 (stereo unspecified)
- EC50 [1]: 16.7 µM (active)
- EC50 [2]: 10.1 µM (active)

Compound: Cc1cc(C=C2C(=O)c3ccccc3C2=O)c(C)n1-c1ccc(Cl)cc1
- EC50 [1]: > 300 µM (not active)
- EC50 [2]: > 300 µM (not active)

Compound: Cc1cccn2c(=O)c3cc(C(=O)NCc4ccco4)c(=N)n(C(C)C)c3nc12
- EC50 [1]: 40.5 µM (active)
- EC50 [2]: 45.5 µM (active)

Compound: O=C(Nc1c(C(=O)O)[nH]c2ccccc12)NC1CCCCC1
- AC50 [3]: 1.26 µM (active)

Compound: Fc1ccc(Nc2c3c(nc4ccccc24)CCC3)cc1
- AC50 [3]: 6.31 µM (active)
- EC50 [8]: > 60 µM (inconclusive)
- EC50 [9]: 2.48 µM (active)

Compound: Cc1cc(NS(=O)(=O)c2ccc(NC(=O)c3cc(-c4cccnc4)nc4ccc(Cl)cc34)cc2)no1
- IC50 [4]: > 100 µM (inactive)

Compound: CC1CCC2C(C1)Nc1c(C(=O)O)cccc1C2(C)C (stereo unspecified)
- AC50 [3]: 4.55 µM (active)

Compound: CCOCCCNc1nc2nc3ccc(C)cn3c(=O)c2cc1C(=O)NCC1CCCO1 (stereo unspecified)
- EC50 [1]: > 300 µM (not active)
- EC50 [2]: > 300 µM (not active)

Compound: Cc1cc(S(=O)(=O)Nc2ccc(N(C)C)cc2)c(C)s1
- AC50 [3]: 0.704 µM (active)

Compound: Cc1cc(C)cc(N2C(=O)CSC2c2ccccn2)c1 (stereo unspecified)
- AC50 [3]: 0.731 µM (active)

Compound: CCCCn1ccnc1C(=O)c1cccc(S(=O)(=O)N2c3ccccc3CC2C)c1 (stereo unspecified)
- IC50 [4]: > 100 µM (inactive)

Compound: Cc1ccc(CSCC(=O)N2CCOCC2)cc1
- IC50 [4]: > 100 µM (inactive)

Compound: COc1ccc(-c2nn(CC(=O)Nc3ccc(Cl)c(Cl)c3)c(=O)c3ccccc23)cc1
- IC50 [4]: > 100 µM (inactive)

Compound: COc1ccc(N2C(=O)CSC2c2ccccc2[N+](=O)[O-])cc1 (stereo unspecified)
- AC50 [3]: 4.55 µM (active)

Compound: O=C(NC1CCN(C(=S)Nc2ccc(Cl)cc2)CC1)c1ccco1
- IC50 [4]: > 100 µM (inactive)

Compound: CCN(CC)c1ccc(CN2CCC(C(=O)NCc3ccc(C)cc3)CC2)cc1
- AC50 [3]: 5.7 µM (active)

Compound: O=C(NCc1ccccn1)C1Nc2ccc(OC(F)(F)F)cc2C2C=CCC12 (stereo unspecified)
- EC50 [1]: > 300 µM (not active)
- EC50 [2]: > 300 µM (not active)

Compound: O=[N+]([O-])c1cccc(-c2cn3nc(-c4ccccc4)c(-c4ccccc4)nc3n2)c1
- EC50 [1]: > 300 µM (not active)
- AC50 [5]: 11 µM (active)
- EC50 [2]: 99 µM (active)

Compound: CCCS(=O)(=O)NCc1ccc2c(c1)cc(C)n2C
- IC50 [4]: > 100 µM (inactive)

Compound: COC(=O)c1c(-c2ccccc2)noc1-c1ccccc1
- IC50 [4]: 58.6 µM (inactive)

Compound: Brc1ccc(-[n+]2c(-c3ccccc3)cc(-c3ccccc3)cc2-c2ccccc2)cc1.[O-][Cl+3]([O-])([O-])[O-]
- AC50 [5]: 2.04 µM (active)

Compound: COc1ccc(C2(c3ccc(OC)cc3)NC(=O)N(CC(=O)NC3CCS(=O)(=O)C3)C2=O)cc1 (stereo unspecified)
- IC50 [4]: > 100 µM (inactive)

Compound: O=[N+]([O-])c1cc2c(cc1Br)-c1ccccc1C2
- IC50 [4]: > 100 µM (inactive)

Compound: CN1c2ccc(-c3ccc(C#N)cc3)cc2[C@@H]2[C@@H](CCN2C(=O)NC2CCCCC2)[C@@H]1CO
- AC50 [10]: 19.9 µM (active)

Compound: C[C@@H]1CCCCO[C@@H](CN(C)C(=O)Cc2ccccc2)[C@@H](C)CN([C@@H](C)CO)C(=O)c2cc(NC(=O)Nc3ccc(C(F)(F)F)cc3)ccc2O1
- AC50 [10]: 4.87 µM (active)

Compound: C[C@@H]1CN([C@H](C)CO)C(=O)c2cc(NC(=O)Nc3ccccc3)ccc2O[C@@H](C)CCCCO[C@H]1CN(C)Cc1ccc(Cl)c(Cl)c1
- AC50 [10]: 7.42 µM (active)

Compound: CCN(CC)S(=O)(=O)c1ccc(/N=N/c2c(C)[nH]n(C(N)=S)c2=O)cc1
- AC50 [3]: 0.782 µM (active)

Compound: COc1cc(/C=N/NC(=O)c2cccc(N3CCCC3=O)c2)ccc1O
- AC50 [3]: 2.71 µM (active)
- IC50 [11]: 30.9 µM (active)

Compound: O=C(N/N=C\c1ccc(-c2ccc(Cl)c(Cl)c2)o1)C(=O)N1CCCC1
- EC50 [1]: 49.5 µM (active)
- EC50 [2]: 29.6 µM (active)
